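Each compound was tested at five concentrations against cells in 96-well plates for 48 hours. Abbreviation: GI50, concentration required for 50% inhibition of growth.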 The source made the active and inactive calls. No stated cut-off is given here; in the data, active = GI50 up to about 1.1 µM and inactive = higher.
How the values were obtained:
Assay in all cases: NCI tumour cell line growth inhibition, 48 h
SF-268 = system: SF-268
SN12C = system: SN12C
UO-31 = system: UO-31
HCC 2998 = system: HCC 2998
K562 = system: K562
SNB-19 = system: SNB-19
NCI-H522 = system: NCI-H522
IGROV-1 = system: IGROV-1
HCT-15 = system: HCT-15
NCI-H460 = system: NCI-H460
HCT-116 = system: HCT-116
U-251 = system: U-251
NCI-H23 = system: NCI-H23
DLD-1 = system: DLD-1
NCI-H226 = system: NCI-H226
SR = system: SR
RXF 393 = system: RXF 393
MDA-MB-435 = system: MDA-MB-435
Hs-578T = system: Hs-578T
PC-3 = system: PC-3

Compound | GI50 (SF-268) | GI50 (SN12C) | GI50 (UO-31) | GI50 (HCC 2998) | GI50 (K562) | GI50 (SNB-19) | GI50 (NCI-H522) | GI50 (IGROV-1) | GI50 (HCT-15) [µM] | GI50 (NCI-H460) | GI50 (HCT-116) | GI50 (U-251) | GI50 (NCI-H23) | GI50 (DLD-1) | GI50 (NCI-H226) | GI50 (SR) | GI50 (RXF 393) | GI50 (MDA-MB-435) | GI50 (Hs-578T) | GI50 (PC-3)
CC(C)(C)C1=CC(=C2C(=O)C(=O)c3ccccc3C2=O)C=C(C(C)(C)C)C1=O | > 100 µM (inactive) | 72.9 µM (inactive) | 43.7 µM (inactive) | > 100 µM (inactive) | 32.1 µM (inactive) | > 100 µM (inactive) | 18.7 µM (inactive) | 24.1 µM (inactive) | 35.5 | 85.5 µM (inactive) | 19.2 µM (inactive) | > 100 µM (inactive) | 32.7 µM (inactive) | 36.6 µM (inactive) | – | – | – | – | – | –
Cc1cccc(C)c1N1C(=O)C(=O)C(c2nc3ccccc3s2)/C(=N\N)C1=O (centres undefined) | > 100 µM (inactive) | 78.7 µM (inactive) | > 100 µM (inactive) | > 100 µM (inactive) | 31.8 µM (inactive) | > 100 µM (inactive) | 39.4 µM (inactive) | > 100 µM (inactive) | > 100 | > 100 µM (inactive) | > 100 µM (inactive) | > 100 µM (inactive) | > 100 µM (inactive) | > 100 µM (inactive) | > 100 µM (inactive) | – | – | – | – | –
CCOC(=O)C(OCC1CC=CCC1)Sc1ccccc1 (centres undefined) | > 100 µM (inactive) | > 100 µM (inactive) | > 100 µM (inactive) | > 100 µM (inactive) | > 100 µM (inactive) | > 100 µM (inactive) | > 100 µM (inactive) | > 100 µM (inactive) | > 100 | > 100 µM (inactive) | > 100 µM (inactive) | > 100 µM (inactive) | > 100 µM (inactive) | > 100 µM (inactive) | – | 1.77 µM (inactive) | – | – | – | –
CC(C)C(=O)N[C@@H](C)C(=O)N(Cc1ccc2ccccc2c1)N=O | > 100 µM (inactive) | > 100 µM (inactive) | 30 µM (inactive) | > 100 µM (inactive) | 36.1 µM (inactive) | > 100 µM (inactive) | – | 95.9 µM (inactive) | 77.4 | 82 µM (inactive) | 68.9 µM (inactive) | 72.4 µM (inactive) | – | > 100 µM (inactive) | – | – | – | – | – | –
C/C(=N\NC(N)=S)c1ccc(C)cc1C | – | > 100 µM (inactive) | 82.6 µM (inactive) | > 100 µM (inactive) | 81.5 µM (inactive) | – | – | 48.8 µM (inactive) | > 100 | 64.7 µM (inactive) | > 100 µM (inactive) | > 100 µM (inactive) | > 100 µM (inactive) | 56.8 µM (inactive) | > 100 µM (inactive) | < 0.01 µM (active) | 8.2 µM (inactive) | – | – | –
COC(=O)C(Cc1nc2ccc(Cl)cc2nc1O)/C(=N\N)C(=O)Nc1cc(C)c(Cl)cc1S(=O)(=O)O (centres undefined) | > 100 µM (inactive) | > 100 µM (inactive) | > 100 µM (inactive) | > 100 µM (inactive) | > 100 µM (inactive) | > 100 µM (inactive) | 90.6 µM (inactive) | > 100 µM (inactive) | > 100 | > 100 µM (inactive) | > 100 µM (inactive) | > 100 µM (inactive) | > 100 µM (inactive) | > 100 µM (inactive) | 47.1 µM (inactive) | 99.8 µM (inactive) | – | – | – | –
C#Cc1ccccc1N1C(=O)C=CC1=O | > 100 µM (inactive) | > 100 µM (inactive) | > 100 µM (inactive) | – | > 100 µM (inactive) | > 100 µM (inactive) | > 100 µM (inactive) | > 100 µM (inactive) | – | > 100 µM (inactive) | > 100 µM (inactive) | > 100 µM (inactive) | > 100 µM (inactive) | > 100 µM (inactive) | > 100 µM (inactive) | > 100 µM (inactive) | – | – | – | –
O=C1C=C2CCCC2C(C(=O)O)(C(=O)O)C1 (centres undefined) | > 100 µM (inactive) | > 100 µM (inactive) | > 100 µM (inactive) | > 100 µM (inactive) | > 100 µM (inactive) | > 100 µM (inactive) | > 100 µM (inactive) | > 100 µM (inactive) | > 100 | > 100 µM (inactive) | > 100 µM (inactive) | > 100 µM (inactive) | > 100 µM (inactive) | > 100 µM (inactive) | – | – | > 100 µM (inactive) | – | – | –
COC1[C@H](NC(=O)OC(C)(C)C)C(=O)N1Cc1ccccc1 (some centres undefined) | > 100 µM (inactive) | > 100 µM (inactive) | > 100 µM (inactive) | > 100 µM (inactive) | > 100 µM (inactive) | > 100 µM (inactive) | – | > 100 µM (inactive) | > 100 | > 100 µM (inactive) | > 100 µM (inactive) | > 100 µM (inactive) | > 100 µM (inactive) | > 100 µM (inactive) | > 100 µM (inactive) | – | > 100 µM (inactive) | – | – | –
Cc1ccccc1Cn1nc2ccccc2cc1=O | > 100 µM (inactive) | > 100 µM (inactive) | > 100 µM (inactive) | > 100 µM (inactive) | > 100 µM (inactive) | > 100 µM (inactive) | – | > 100 µM (inactive) | > 100 | > 100 µM (inactive) | > 100 µM (inactive) | > 100 µM (inactive) | > 100 µM (inactive) | > 100 µM (inactive) | > 100 µM (inactive) | – | – | – | – | –
C=C1C[C@@H]2O[C@H]3[C@H]4[C@@H](C[C@@H](C)[C@@H](OC(C)=O)[C@H]42)[C@@H](C)CO[C@@]3(C)[C@H](OC(C)=O)C[C@H]1O | > 100 µM (inactive) | > 100 µM (inactive) | 77.6 µM (inactive) | > 100 µM (inactive) | 25.7 µM (inactive) | > 100 µM (inactive) | 48 µM (inactive) | > 100 µM (inactive) | > 100 | 70.8 µM (inactive) | > 100 µM (inactive) | > 100 µM (inactive) | > 100 µM (inactive) | – | > 100 µM (inactive) | 43 µM (inactive) | 38.7 µM (inactive) | 33 µM (inactive) | > 100 µM (inactive) | 95.9 µM (inactive)
COC(=O)c1c(O)ccc2c1c1c(n2Cc2ccc(OC)cc2)C(=O)c2ccccc2C1=O | 12.4 µM (inactive) | 2.78 µM (inactive) | 3.92 µM (inactive) | 2.97 µM (inactive) | 3.28 µM (inactive) | 22.5 µM (inactive) | 4.1 µM (inactive) | 6.21 µM (inactive) | 3.74 | 3.75 µM (inactive) | 6.3 µM (inactive) | 8.67 µM (inactive) | 11 µM (inactive) | – | 10.4 µM (inactive) | 0.251 µM (active) | 10.7 µM (inactive) | 6.46 µM (inactive) | 13.9 µM (inactive) | 5.2 µM (inactive)
C=CCCCCCCCCCOC1C=CC(OC(C)=O)C(COC(C)=O)O1 (centres undefined) | 37.3 µM (inactive) | 42.8 µM (inactive) | 44.8 µM (inactive) | 39.8 µM (inactive) | 1.99 µM (inactive) | > 100 µM (inactive) | 26.5 µM (inactive) | 27 µM (inactive) | 36.6 | 38.7 µM (inactive) | 53.2 µM (inactive) | 39.6 µM (inactive) | 32.1 µM (inactive) | – | > 100 µM (inactive) | 32.7 µM (inactive) | > 100 µM (inactive) | 50.8 µM (inactive) | 28.9 µM (inactive) | 32 µM (inactive)
CC(C)=CC(=O)CC(=O)C(=O)NCCNC(=O)C(=O)CC(=O)C=C(C)C | > 50 µM (inactive) | > 50 µM (inactive) | > 50 µM (inactive) | > 50 µM (inactive) | – | > 50 µM (inactive) | – | > 50 µM (inactive) | > 50 | > 50 µM (inactive) | > 50 µM (inactive) | > 50 µM (inactive) | > 50 µM (inactive) | > 50 µM (inactive) | > 50 µM (inactive) | – | > 50 µM (inactive) | – | – | –
C/C(=C\CO)CC/C=C(\C)CNc1c(F)c(F)c(F)c(F)c1F | 23.1 µM (inactive) | 20.2 µM (inactive) | 35.6 µM (inactive) | 24.7 µM (inactive) | 33 µM (inactive) | 27.7 µM (inactive) | 18.4 µM (inactive) | 49.5 µM (inactive) | 30.2 | 36.1 µM (inactive) | 50.8 µM (inactive) | 24.3 µM (inactive) | > 100 µM (inactive) | – | 28.1 µM (inactive) | 28.3 µM (inactive) | 24.8 µM (inactive) | 22.9 µM (inactive) | 33.7 µM (inactive) | 21.1 µM (inactive)
CCCC(=O)Nc1cn(COC)c(C(=O)N2C[C@@H]3C[C@]34C2=CC(=O)c2[nH]cc(C)c24)n1 | 5.31 µM (inactive) | 11.2 µM (inactive) | 12.3 µM (inactive) | 5.31 µM (inactive) | 4.35 µM (inactive) | 18.5 µM (inactive) | 3.28 µM (inactive) | 9.25 µM (inactive) | 13.7 | 4.79 µM (inactive) | 7.21 µM (inactive) | 12.9 µM (inactive) | 2.9 µM (inactive) | – | 10.5 µM (inactive) | 0.24 µM (active) | 2.57 µM (inactive) | 9.23 µM (inactive) | 15.1 µM (inactive) | 6.81 µM (inactive)
CN(C)CCC[N+]1=Nc2cccc3cccc(c23)N1 | > 100 µM (inactive) | 85.1 µM (inactive) | 96.4 µM (inactive) | 24.2 µM (inactive) | 31.8 µM (inactive) | > 100 µM (inactive) | 38 µM (inactive) | 31.4 µM (inactive) | 39.3 | 35.6 µM (inactive) | 44.6 µM (inactive) | 60 µM (inactive) | > 100 µM (inactive) | 17.5 µM (inactive) | > 100 µM (inactive) | 16.9 µM (inactive) | – | – | – | –
